Reference: article PMC8703412 (Pharmaceuticals, 2021)
Values after ≈ are worked out from the molar mass of the structure shown. Read-outs that look alike come from different tables or passages of the source.

Experiments:
Assay in all cases: microbe, parasite or virus in culture
Assay type in all cases: cell-based, Mycobacterium tuberculosis
Conditions in all cases: for MIC: Mycobacterium tuberculosis
[1] = system: Mtb. 7357/1998 (MDR-TB)
[2] = system: Mtb. 234/2005 (MDR-TB)
[3] = system: Mtb. Praha 131 (XDR-TB)
[4] = system: Mtb. Praha 4 (MDR-TB)
[5] = system: Mtb. 9449/2007 (MDR-TB)
[6] = system: Mtb. Praha 1 (MDR-TB)
[7] = system: Mtb. 8666/2010 (MDR-TB)
[8] = 336 h, read-out: MIC Mtb. 7357/1998 14 d
[9] = 504 h, read-out: MIC Mtb. 7357/1998 21 d
[10] = 336 h, read-out: MIC Mtb. 234/2005 14 d
[11] = 504 h, read-out: MIC Mtb. 234/2005 21 d
[12] = 336 h, read-out: MIC Mtb. Praha 131 14 d
[13] = 504 h, read-out: MIC Mtb. Praha 131 21 d
[14] = 336 h, read-out: MIC Mtb. Praha 4 14 d
[15] = 504 h, read-out: MIC Mtb. Praha 4 21 d
[16] = 336 h, read-out: MIC Mtb. 9449/2007 14 d
[17] = 504 h, read-out: MIC Mtb. 9449/2007 21 d
[18] = 336 h, read-out: MIC Mtb. Praha 1 14 d
[19] = 504 h, read-out: MIC Mtb. Praha 1 21 d
[20] = 336 h, read-out: MIC Mtb. 8666/2010 14 d
[21] = 504 h, read-out: MIC Mtb. 8666/2010 21 d

Compound	MIC [1, 8]	MIC [1, 9]	MIC [2, 10]	MIC [2, 11]	MIC [3, 12]	MIC [3, 13]	MIC [4, 14]	MIC [4, 15]	MIC [5, 16]	MIC [5, 17]	MIC [6, 18]	MIC [6, 19]	MIC [7, 20]	MIC [7, 21]	other results
5-Isopropyl-2-methylphenyl (E)-2-(2-isonicotinoylhydrazineylidene)propanoate [3k]	–	–	–	–	–	–	–	–	–	–	–	–	–	–	MIC Mtb. 7357/1998 14 d ([1]; 14 d incubation): 32 µM; MIC Mtb. 7357/1998 21 d ([1]; 21 d incubation): 32 µM; MIC Mtb. 234/2005 14 d ([2]; 14 d incubation): 32 µM; MIC Mtb. 234/2005 21 d ([2]; 21 d incubation): 32 µM; MIC Mtb. Praha 131 14 d ([3]; 14 d incubation): 32 µM; MIC Mtb. Praha 131 21 d ([3]; 21 d incubation): 64 µM; MIC Mtb. Praha 4 14 d ([4]; 14 d incubation): 16 µM; MIC Mtb. Praha 4 21 d ([4]; 21 d incubation): 32 µM; MIC Mtb. 9449/2007 14 d ([5]; 14 d incubation): 32 µM; MIC Mtb. 9449/2007 21 d ([5]; 21 d incubation): 32 µM; MIC Mtb. Praha 1 14 d ([6]; 14 d incubation): 125 µM; MIC Mtb. Praha 1 21 d ([6]; 21 d incubation): 125 µM; MIC Mtb. 8666/2010 14 d ([7]; 14 d incubation): 16 µM; MIC Mtb. 8666/2010 21 d ([7]; 21 d incubation): 32 µM
C/C(=N\NC(=O)c1ccncc1)C(=O)Oc1ccccc1 [3b, Phenyl (E)-2-(2-isonicotinoylhydrazineylidene)propanoate]	16 µM (≈ 4.53 µg/mL)	16 µM (≈ 4.53 µg/mL)	32 µM (≈ 9.07 µg/mL)	32 µM (≈ 9.07 µg/mL)	16 µM (≈ 4.53 µg/mL)	16 µM (≈ 4.53 µg/mL)	16 µM (≈ 4.53 µg/mL)	16 µM (≈ 4.53 µg/mL)	32 µM (≈ 9.07 µg/mL)	32 µM (≈ 9.07 µg/mL)	16 µM (≈ 4.53 µg/mL)	16 µM (≈ 4.53 µg/mL)	16 µM (≈ 4.53 µg/mL)	16 µM (≈ 4.53 µg/mL)	–
COc1ccc(OC(=O)/C(C)=N/NC(=O)c2ccncc2)cc1 [3d, 4-Methoxyphenyl (E)-2-(2-isonicotinoylhydrazineylidene)propanoate]	16 µM (≈ 5.01 µg/mL)	16 µM (≈ 5.01 µg/mL)	16 µM (≈ 5.01 µg/mL)	32 µM (≈ 10 µg/mL)	8 µM (≈ 2.51 µg/mL)	16 µM (≈ 5.01 µg/mL)	16 µM (≈ 5.01 µg/mL)	32 µM (≈ 10 µg/mL)	16 µM (≈ 5.01 µg/mL)	16 µM (≈ 5.01 µg/mL)	8 µM (≈ 2.51 µg/mL)	16 µM (≈ 5.01 µg/mL)	8 µM (≈ 2.51 µg/mL)	16 µM (≈ 5.01 µg/mL)	–
C/C(=N\NC(=O)c1ccncc1)C(=O)Oc1ccc(Cl)cc1 [3g, 4-Chlorophenyl (E)-2-(2-isonicotinoylhydrazineylidene)propanoate]	16 µM (≈ 5.08 µg/mL)	16 µM (≈ 5.08 µg/mL)	16 µM (≈ 5.08 µg/mL)	32 µM (≈ 10.2 µg/mL)	8 µM (≈ 2.54 µg/mL)	8 µM (≈ 2.54 µg/mL)	16 µM (≈ 5.08 µg/mL)	16 µM (≈ 5.08 µg/mL)	16 µM (≈ 5.08 µg/mL)	16 µM (≈ 5.08 µg/mL)	8 µM (≈ 2.54 µg/mL)	8 µM (≈ 2.54 µg/mL)	8 µM (≈ 2.54 µg/mL)	16 µM (≈ 5.08 µg/mL)	–
C/C(=N\NC(=O)c1ccncc1)C(=O)Oc1cccc2ccccc12 [3i, Naphthalen-1-yl (E)-2-(2-isonicotinoylhydrazineylidene)propanoate]	16 µM (≈ 5.33 µg/mL)	32 µM (≈ 10.7 µg/mL)	16 µM (≈ 5.33 µg/mL)	32 µM (≈ 10.7 µg/mL)	32 µM (≈ 10.7 µg/mL)	32 µM (≈ 10.7 µg/mL)	16 µM (≈ 5.33 µg/mL)	32 µM (≈ 10.7 µg/mL)	32 µM (≈ 10.7 µg/mL)	32 µM (≈ 10.7 µg/mL)	64 µM (≈ 21.3 µg/mL)	125 µM (≈ 41.7 µg/mL)	16 µM (≈ 5.33 µg/mL)	16 µM (≈ 5.33 µg/mL)	–
C/C(=N\NC(=O)c1ccncc1)C(=O)Oc1ccc2ccccc2c1 [3j, Naphthalen-2-yl (E)-2-(2-isonicotinoylhydrazineylidene)propanoate]	32 µM (≈ 10.7 µg/mL)	32 µM (≈ 10.7 µg/mL)	16 µM (≈ 5.33 µg/mL)	32 µM (≈ 10.7 µg/mL)	32 µM (≈ 10.7 µg/mL)	32 µM (≈ 10.7 µg/mL)	32 µM (≈ 10.7 µg/mL)	32 µM (≈ 10.7 µg/mL)	32 µM (≈ 10.7 µg/mL)	32 µM (≈ 10.7 µg/mL)	125 µM (≈ 41.7 µg/mL)	125 µM (≈ 41.7 µg/mL)	16 µM (≈ 5.33 µg/mL)	32 µM (≈ 10.7 µg/mL)	–
C/C(=N\NC(=O)c1ccncc1)C(=O)Oc1cc(C(C)C)ccc1C [3l, 2-Isopropyl-5-methyphenyl (E)-2-(2-isonicotinoylhydrazineylidene)propanoate]	16 µM (≈ 5.43 µg/mL)	32 µM (≈ 10.9 µg/mL)	16 µM (≈ 5.43 µg/mL)	32 µM (≈ 10.9 µg/mL)	32 µM (≈ 10.9 µg/mL)	64 µM (≈ 21.7 µg/mL)	8 µM (≈ 2.72 µg/mL)	16 µM (≈ 5.43 µg/mL)	16 µM (≈ 5.43 µg/mL)	32 µM (≈ 10.9 µg/mL)	32 µM (≈ 10.9 µg/mL)	64 µM (≈ 21.7 µg/mL)	16 µM (≈ 5.43 µg/mL)	16 µM (≈ 5.43 µg/mL)	–
C/C(=N\NC(=O)c1ccncc1)C(=O)Oc1cccc2cccnc12 [3m, Quinolin-8-yl (E)-2-(2-isonicotinoylhydrazineylidene)propanoate]	8 µM (≈ 2.67 µg/mL)	8 µM (≈ 2.67 µg/mL)	8 µM (≈ 2.67 µg/mL)	8 µM (≈ 2.67 µg/mL)	8 µM (≈ 2.67 µg/mL)	8 µM (≈ 2.67 µg/mL)	8 µM (≈ 2.67 µg/mL)	8 µM (≈ 2.67 µg/mL)	8 µM (≈ 2.67 µg/mL)	8 µM (≈ 2.67 µg/mL)	8 µM (≈ 2.67 µg/mL)	8 µM (≈ 2.67 µg/mL)	8 µM (≈ 2.67 µg/mL)	8 µM (≈ 2.67 µg/mL)	–
C/C(=N\NC(=O)c1ccncc1)C(=O)Oc1cc(Cl)ccc1Oc1ccc(Cl)cc1Cl [3o, 5-Chloro-2-(2,4-dichlorophenoxy)phenyl (E)-2-(2-isonicotinoylhydrazineylidene)propanoate]	32 µM (≈ 15.3 µg/mL)	32 µM (≈ 15.3 µg/mL)	32 µM (≈ 15.3 µg/mL)	32 µM (≈ 15.3 µg/mL)	32 µM (≈ 15.3 µg/mL)	32 µM (≈ 15.3 µg/mL)	32 µM (≈ 15.3 µg/mL)	32 µM (≈ 15.3 µg/mL)	32 µM (≈ 15.3 µg/mL)	32 µM (≈ 15.3 µg/mL)	125 µM (≈ 59.8 µg/mL)	125 µM (≈ 59.8 µg/mL)	32 µM (≈ 15.3 µg/mL)	32 µM (≈ 15.3 µg/mL)	–
CC(=O)Nc1ccc(OC(=O)C(C)=NNC(=O)c2ccncc2)cc1 [3p, 4-Acetamidophenyl 2-(2-isonicotinoylhydrazineylidene)propanoate]	16 µM (≈ 5.45 µg/mL)	32 µM (≈ 10.9 µg/mL)	32 µM (≈ 10.9 µg/mL)	64 µM (≈ 21.8 µg/mL)	32 µM (≈ 10.9 µg/mL)	64 µM (≈ 21.8 µg/mL)	32 µM (≈ 10.9 µg/mL)	32 µM (≈ 10.9 µg/mL)	32 µM (≈ 10.9 µg/mL)	64 µM (≈ 21.8 µg/mL)	125 µM (≈ 42.5 µg/mL)	125 µM (≈ 42.5 µg/mL)	32 µM (≈ 10.9 µg/mL)	32 µM (≈ 10.9 µg/mL)	–
C/C(=N\NC(=O)c1ccncc1)C(=O)OCCn1c([N+](=O)[O-])cnc1C [3q, 2-(2-Methyl-5-nitro-1H-imidazol-1-yl)ethyl (E)-2-(2 isonicotinoylhydrazineylidene)propanoate]	16 µM (≈ 5.77 µg/mL)	32 µM (≈ 11.5 µg/mL)	32 µM (≈ 11.5 µg/mL)	32 µM (≈ 11.5 µg/mL)	16 µM (≈ 5.77 µg/mL)	32 µM (≈ 11.5 µg/mL)	32 µM (≈ 11.5 µg/mL)	32 µM (≈ 11.5 µg/mL)	32 µM (≈ 11.5 µg/mL)	32 µM (≈ 11.5 µg/mL)	125 µM (≈ 45 µg/mL)	125 µM (≈ 45 µg/mL)	16 µM (≈ 5.77 µg/mL)	16 µM (≈ 5.77 µg/mL)	–
C/C(=N\NC(=O)c1ccncc1)C(=O)Sc1ccccc1 [3s, S-Phenyl (E)-2-(2-isonicotinoylhydrazineylidene)propanethioate]	32 µM (≈ 9.58 µg/mL)	64 µM (≈ 19.2 µg/mL)	32 µM (≈ 9.58 µg/mL)	64 µM (≈ 19.2 µg/mL)	32 µM (≈ 9.58 µg/mL)	64 µM (≈ 19.2 µg/mL)	32 µM (≈ 9.58 µg/mL)	64 µM (≈ 19.2 µg/mL)	64 µM (≈ 19.2 µg/mL)	64 µM (≈ 19.2 µg/mL)	64 µM (≈ 19.2 µg/mL)	125 µM (≈ 37.4 µg/mL)	32 µM (≈ 9.58 µg/mL)	32 µM (≈ 9.58 µg/mL)	–
